Data: patent US12673050B2, “Compositions and their use for the treatment of A1-antitrypsin deficiency” (Centessa Pharmaceuticals (UK) Limited, priority 2021, dated 2026)

Experiments:
human Siiyama A1AT = target: T1, human Siiyama A1AT (Homo sapiens, UniProt P01009, S77F); assay: A1AT cell secretion assay using HEK-Siiyama cells (ELISA); assay type: cell-based; conditions: 10 μM, 48 h
T1 construct: expressed in transfected cells; host or cells: HEK-Siiyama cells (HEK-EBNA with Siiyama A1AT plasmid)
Description: (§1) HEK-Siiyama cells, a human embryonic kidney cell line stably transfected with the Siiyama A1AT gene, were plated into 96 well plates (3.0×10^5 cells/ml with 200 μl of media/well) overnight at 37° C. in a humidified atmosphere containing 5% CO2. Following incubation cells were washed with 200 μl serum-free media three times and media was replaced with serum-free media containing vehicle, 10 μM suberanilohydroxamic acid (SAHA), (S)-1-((2-(trifluoromethyl)phenyl)sulfonyl)piperidine-3-carboxylic acid (at 1 or 10 μM) or (R)-1-((2-(trifluoromethyl)phenyl)sulfonyl)piperidine-3-carboxylic acid (at 1 or 10 μM) in replicates of eight for 48 h in a 37° C. incubator in a final volume of 200 μl. At the end of the incubation step the supernatants were removed from the wells, centrifuged at 1000×g at 4° C. for 10 min and were assayed for human A1AT levels by ELISA (Human Serpin A1/α1-antitrypsin duo set ELISA, R& D Systems, DY1268) per manufacturer's instructions.
(§2) Briefly, a 96 well plate was coated with human A1AT capture antibody overnight at room temperature (1:180 dilution from stock, 100 μl final volume/well). The capture antibody was then removed and wells washed three times with 300 μl wash buffer (0.05% Tween 20 in PBS) and then 200 μl reagent diluent (25% Tween 20 in PBS) was incubated in each well for 1 h at room temperature. Diluted samples, standards (125, 250, 500, 1000, 2000, 4000 and 8000 pg/ml A1AT) or blanks were then added to each well in duplicate and the plates were covered with a plate sealer and left at room temperature for 2 h. […] After which, 50 μl stop solution (2M H2SO4) was added and optical density (OD) of each well was read at 450 nm with 570 nm blank subtracted from each well using a microplate reader. A 4 parameter logistic curve was constructed using GraphPad Prism 7 and A1AT concentrations were determined in each sample by interpolation from a standard curve and multiplying by the appropriate dilution factor.
(§3) The amount of human A1AT secreted from transfected HEK-EBNA cells into the media was measured by ELISA. […]

human M A1AT = target: T2, human M A1AT (Homo sapiens, UniProt P01009); assay: A1AT cell secretion assay using HEK-M cells (ELISA); assay type: cell-based; conditions: 10 μM, 48 h
T2 construct: expressed in transfected cells; host or cells: HEK-M cells (HEK-EBNA with M A1AT plasmid)
Description: as §1, with “HEK-M cells, a” for “HEK-Siiyama cells, a”, “transfected with M A1AT, were plated” for “transfected with the Siiyama A1AT gene, were plated”, “media containing either vehicle, 10” for “media containing vehicle, 10”, “acid (at 10 μM)” for “acid (at 1 or 10 μM)”, “replicates of six for 48” for “replicates of eight for 48”, “(Human Serpin A1/α1 antitrypsin duo set” for “(Human Serpin A1/α1-antitrypsin duo set”
as §2, with “(0.05% Tween in PBS)” for “(0.05% Tween 20 in PBS)”
as §3

T2 sequence (P01009 25-418): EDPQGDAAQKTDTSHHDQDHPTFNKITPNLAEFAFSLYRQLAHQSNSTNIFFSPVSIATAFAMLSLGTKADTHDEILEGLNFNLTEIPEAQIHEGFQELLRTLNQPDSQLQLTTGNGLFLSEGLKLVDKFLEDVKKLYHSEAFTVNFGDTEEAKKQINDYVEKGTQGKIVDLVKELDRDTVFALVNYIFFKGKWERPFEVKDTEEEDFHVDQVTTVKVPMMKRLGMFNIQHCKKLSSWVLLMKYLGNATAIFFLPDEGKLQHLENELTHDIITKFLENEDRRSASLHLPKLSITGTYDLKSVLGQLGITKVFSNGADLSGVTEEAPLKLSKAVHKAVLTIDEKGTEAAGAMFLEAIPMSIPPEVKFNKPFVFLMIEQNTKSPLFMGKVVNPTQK
T1 sequence (P01009 25-418 S77F): as the sequence (P01009 25-418) above, with S53F counted along it

O=C(CCCCCCC(=O)Nc1ccccc1)NO [SAHA, suberanilohydroxamic acid, reference compound]
secretion of human Siiyama A1AT into cell supernatant (positive control) (human Siiyama A1AT): stimulates an increase in Siiyama A1AT secretion | secretion of human M A1AT into cell supernatant (human M A1AT): stimulates an increase in M A1AT secretion
